{"source": "patent US5965619A", "about": "“Method for treating patients having precancerous lesions with substituted indene derivatives” (Cell Pathways Inc., priority 1997, dated 1999)", "key": {"[1]": {"system": "human colon carcinoma cell line, HT-29", "test": "HT-29 tumor cell growth inhibition, Sulforhodamine B (SRB) protein binding assay", "type": "cell-based", "conditions": "144 h, six days continuous exposure", "method": "These compounds were assayed for their effect on the human colon carcinoma cell line, HT-29 obtained from ATCC, (Rockville, Md.) to ascertain the degree of growth inhibition. Growth inhibition of this cell line is indicative of a benefit on precancerous lesions and neoplasms. The cell line and growth assay employed for these experiments is well characterized, and is used by the United States National Cancer Institute in its screening program for new anti-cancer drugs.\nDrug stock solutions were made in 100% DMSO then diluted with RPMI media for cell culture testing. All drug solutions were prepared fresh on the day of testing. The cultured cells were obtained at passage #118 and grown in RPMI media supplemented with 5% fetal calf serum, and 2 mM glutamine, 100 U/ml penicillin, 100 U/ml streptomycin, and 0.25 μg/ml amphotericin. The cultures were maintained in a humidified atmosphere of 95% air and 5% CO2 at 37° C. The cultures were passaged at preconfluent densities using a solution of 0.05% trypsin and 0.53 mM EDTA. All experiments involved HT-29 cells between passages 120 and 140. Cells were plated at the following densities to obtain cultures used for the experiments: 500 cells/well for 96 well flat-bottom microtiter plates, 1×10^6 cells per 25 cm^2 flask.\nTumor cell growth inhibition was assessed using the Sulforhodamine B (SRB) protein binding assay. In this assay, tumor cells were plated in 96-well plates and treated with drug-containing media for six days (continuous exposure). For each plate, 6 wells were designated as no treatment controls, six wells as vehicle (0.1% DMSO) controls, and the remaining wells for drug dilutions with six wells per drug concentration. At the end of the exposure period, the cells were fixed and stained with sulforhodamine B, a protein binding dye. The dye was then solubilized, and the optical density of the resulting solution was determined on a 96-well plate reader. The mean dye intensity of the treated wells was then divided by the mean dye intensity in the control wells (6 wells of each) to determine the effect of the drug on the cells. Dye intensity is proportional to the number of cells or amount of protein per well. The resultant \"percent inhibition\" value then represents the degree of growth inhibition caused by the drug.\nFor each experiment, an IC50 value was determined and used for comparative purposes. This value is equivalent to the concentration of drug needed to inhibit tumor cell growth by 50%. IC50 values were obtained graphically by connecting the mean values for each drug concentration tested. Each experiment included at least six wells per drug concentration. Concentration was plotted on a log scale on the X-axis."}, "precancerous lesions": {"system": "precancerous lesions", "conditions": "cited from earlier work"}, "prostaglandin synthesis": {"system": "prostaglandin synthesis", "conditions": "cited from earlier work"}, "purified COX": {"system": "purified COX", "test": "Cyclooxygenase (COX) inhibition, purified COX from ram seminal vesicles", "type": "biochemical", "conditions": "100 μM dose; arachidonic acid 100 uM, 2.0 min at 37° C.", "method": "Compounds of this invention, as well as several others (sce Table 2 below), were evaluated to determine whether they inhibited the production of prostaglandin according to the procedure below. COX is involved in the formation of prostaglandins and thromboxane by the oxidative metabolism of arachidonic acid. […] Briefly, purified COX was incubated with arachidonic acid (100 uM) for 2.0 min at 37° C. in the presence or absence of test compounds. The assay was terminated by the addition of TCA, and COX activity was determined by absorbance at 530 nm."}, "colonic polyps": {"system": "colonic polyps", "conditions": "cited from earlier work"}, "[2]": {"system": "DMBA-Induced Mammary Lesions", "test": "Mouse mammary gland organ culture, DMBA-induced mammary lesions", "type": "cell-based, mouse (female BALB/c)", "conditions": "15 glands per group", "method": "The compound of Example No. 17(d) was also tested for its ability to inhibit the incidence of mammary lesions in an organ culture system. This mouse mammary gland organ culture technique has been successfully used by other investigators to study the effects of known cancer-chemopreventativeagents such as retinoids and selenium.\nFemale BALB/c mice, 28 days old, were treated for nine days with a combination of 1 μg of estradiol and 1 mg of progesterone daily, in order to prime the glands to be responsive to hormones in vitro. The animals were sacrificed and thoracic mammary glands were excised aseptically and incubated for ten days in growth media supplemented with growth-promoting hormones: insulin, prolactin, and hydrocortisone, at 5 μg/ml each and aldosterone at 1 μg/ml. A twenty-four hour treatment of 7,12-dimethylbenz(a)anthracene (DMBA, 2 μg/ml) was carried out between days three and four to induce the formation of mammary lesions. Fully developed glands were deprived of prolactin, hydrocortisone, and aldosterone for 14 days, resulting in the regression of the glands but not the mammary lesions.\nIn order to evaluate the effects of Compound No. 17(d), it was dissolved in DMSO and added to the culture media supplemented for the duration of the culture period. At the end of the culture period, the glands were fixed in 10% formalin, stained with alum carmine, and mounted on glass slides. The incidence of forming mammary lesions is the ratio of the glands with mammary lesions and glands without lesions. The incidence of mammary lesions in compound 17(d) treated glands was compared with that of the untreated glands.\nThe extent of the area occupied by the mammary lesions was quantitated by projecting an image of the gland onto a digitation pad. The area covered by the gland was traced on the pad and considered as 100% of the area, The space covered by each of the unregressed structures was also outlined on the digitization pad and quantitated by the computer."}}, "data": [{"smiles": "COc1ccc(/C=C2/C(C)=C(CC(=O)O)c3cc(F)ccc32)cc1", "note": "[16(e), (Z)-5-fluoro-2-methyl-1-(p-methoxy-benzylidene)-3-indenylacetic acid]", "values": [{"measurement": "IC50", "setting": "[1]", "result": 29, "unit": "µM"}]}, {"smiles": "CC1=C(CC(=O)O)c2cc(F)ccc2/C1=C\\c1ccc(Cl)cc1", "note": "[17(b), (Z)-5-fluoro-2-methyl-1-(4-chlorobenzylidene)-3-indenylacetic acid]", "values": [{"measurement": "IC50", "setting": "[1]", "result": 58, "unit": "µM"}]}, {"smiles": "CC1=C(CC(=O)O)c2cc(F)ccc2/C1=C\\c1ccc(S(C)(=O)=O)cc1", "note": "[sulfone]", "values": [{"measurement": "activity as inhibitor of precancerous lesions", "setting": "precancerous lesions", "result": "active as an inhibitor of precancerous lesions"}, {"measurement": "activity as inhibitor of prostaglandin synthesis", "setting": "prostaglandin synthesis", "result": "inactive as an inhibitor of prostaglandin synthesis"}]}, {"smiles": "CC1=C(CC(=O)O)c2cc(F)ccc2/C1=C\\c1c(Cl)cccc1Cl", "note": "[17(h), (Z)-5-fluoro-2-methyl-1-(2,6-dichlorobenzylidene)-3-indenylacetic acid]", "values": [{"measurement": "IC50", "setting": "[1]", "result": 31, "unit": "µM"}]}, {"smiles": "COc1cc(OC)c(OC)cc1/C=C1/C(C)=C(CC(=O)O)c2cc(F)ccc21", "note": "[17(g), (Z)-5-fluoro-2-methyl-1-(2,4,5-trimethoxybenzylidene)-3-indenylacetic acid]", "values": [{"measurement": "IC50", "setting": "[1]", "result": 40, "unit": "µM"}]}, {"smiles": "CC1=C(CC(=O)O)c2cc(F)ccc2/C1=C\\c1ccccc1", "note": "[17(a), (Z)-5-fluoro-2-methyl-1-benzylidene-3-indenylacetic acid]", "values": [{"measurement": "IC50", "setting": "[1]", "result": 40, "unit": "µM"}]}, {"smiles": "CSc1ccc(/C=C2/C(C)=C(CC(=O)O)c3cc(F)ccc32)cc1", "note": "[Sulindac Sulfide, reference compound]", "values": [{"measurement": "% Inhibition", "setting": "purified COX", "result": 86, "unit": "%"}, {"measurement": "activity as inhibitor of prostaglandin synthesis", "setting": "prostaglandin synthesis", "result": "active moiety as a prostaglandin synthesis inhibitor"}]}, {"smiles": "COc1cc(OC)c(/C=C2/C(C)=C(CC(=O)O)c3cc(F)ccc32)c(OC)c1", "note": "[17(e), (Z)-5-fluoro-2-methyl-1-(2,4,6-trimethoxybenzylidene)-3-indenylacetic acid]", "values": [{"measurement": "IC50", "setting": "[1]", "result": 61, "unit": "µM"}]}, {"smiles": "COc1ccc(/C=C2/C(C)=C(CC(=O)O)c3cc(F)ccc32)c(OC)c1OC", "note": "[17(f), (Z)-5-fluoro-2-methyl-1-(2,3,4-trimethoxybenzylidene)-3-indenylacetic acid]", "values": [{"measurement": "IC50", "setting": "[1]", "result": 40, "unit": "µM"}]}, {"smiles": "CC1=C(CC(=O)O)c2cc(F)ccc2/C1=C\\c1ccc([S+](C)[O-])cc1", "note": "(stereo not drawn) [sulindac]", "values": [{"measurement": "effect on polyps when patients take the drug", "setting": "colonic polyps", "result": "Polyps virtually disappear"}]}, {"smiles": "COc1cc(/C=C2/C(C)=C(CC(=O)O)c3cc(F)ccc32)cc(OC)c1OC", "note": "[Example 17(d), (Z)-5-fluoro-2-methyl-1-(3,4,5-trimethoxybenzylidene)-3-indenylacetic acid]", "values": [{"measurement": "% Inhibition", "setting": "purified COX", "result": "No inhibition"}, {"measurement": "Glands with Lesions", "setting": "[2]; 10 μm", "result": 5}, {"measurement": "Percent Incidence", "setting": "[2]; 10 μm", "result": 33.33, "unit": "%"}, {"measurement": "Glands with Lesions", "setting": "[2]; 100 μm", "result": 0}, {"measurement": "Percent Incidence", "setting": "[2]; 100 μm", "result": 0.00, "unit": "%"}, {"measurement": "IC50", "setting": "[1]", "result": 39, "unit": "µM"}]}]}
